Holding throughout (assay type): in vivo
In data set [1] the test system is Amaranthus retroflexus (AMARE). Put plainly: E. Herbicidal post-emergence efficacy, AMARE. An outline of the steps: (§1)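 Greenhouse post-emergence spray, one-leaf stage (2–3 wk after sowing, sandy loam); WP/EC formulation, aqueous + 0.5% additive, 600 l/ha water; rates 320 g/ha or less. Visual rating ~3 wk later vs untreated; 0% = control-like, 100% = dead.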
The test system of data set [2] is Lolium rigidum (LOLRI). Put plainly: B. Herbicidal post-emergence efficacy, LOLRI. The following applies: 1280 g/ha. The protocol:
Seeds of mono- and dicotyledonous weed plants were placed in plastic pots in sandy loam soil (doubly sown with in each case one species of mono- or dicotyledonous weed plants per pot), covered with soil and cultivated in a greenhouse under controlled growth conditions. 2 to 3 weeks after sowing, the test plants were treated at the one-leaf stage. The compounds of the invention, formulated in the form of wettable powders (WP) or as emulsion concentrates (EC), were applied onto the green parts of the plants as aqueous suspension or emulsion with addition of 0.5% additive at a water application rate of 600 liters per hectare (converted). After the test plants had been kept in the greenhouse under optimum growth conditions for about 3 weeks, the activity of the preparations was rated visually in comparison to untreated controls.
For example, • 100% efficacy=plants have died, • 0% efficacy=like untreated control plants
Tables B1a to B12c below show the effects of selected inventive compounds of the general formula (I) according to table 1 on various harmful plants at an application rate corresponding to 1280 g/ha or less, which were obtained by the experimental procedure mentioned above.

The test system of data set [3] is Stellaria media (STEME). Put plainly: B. Herbicidal post-emergence efficacy, STEME. Summed up: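 Post-emergence foliar spray, at application rates of 1280 g/ha or less, on one-leaf-stage plants 2–3 weeks post-sowing, using aqueous WP or EC suspensions with 0.5% additive at 600 L/ha. Visual percent efficacy relative to untreated plants scored roughly 3 weeks later in the greenhouse.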

Data set [4] concerns Avena fatua (AVEFA). Put plainly: C. Herbicidal pre-emergence efficacy, AVEFA. The following applies: 320 g/ha, scored after about 3 weeks. The source says:
(§2) Seeds of monocotyledonous and dicotyledonous weed plants and crop plants were placed in plastic or organic planting pots and covered with soil. The compounds of the invention, formulated in the form of wettable powders (WP) or as emulsion concentrates (EC), were then applied to the surface of the covering soil as aqueous suspension or emulsion with addition of 0.5% additive at a water application rate equivalent to 600 l/ha (converted). After the treatment, the pots were placed in a greenhouse and kept under good growth conditions for the test plants. After about 3 weeks, the efficacy of the preparations was scored visually in comparison with untreated controls as percentages. For example, • 100% efficacy=plants have died, • 0% efficacy=like untreated control plants.
(§3) Tables C1a to C14b below show the effects of selected compounds of the general formula (I) according to table 1 on various harmful plants at an application rate corresponding to 320 g/ha or less, which were obtained by the experimental procedure mentioned above.

The test system of data set [5] is Alopecurus myosuroides (ALOMY). Put plainly: E. Herbicidal post-emergence efficacy, ALOMY. An outline of the steps:
as §1

The subject of data set [6] is Zea mays (ZEAMX). Put plainly: D. Pre-emergence effect on useful plants, ZEAMX. The following applies: useful plant, application rate 80 g/ha. An outline of the steps: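 Seeds sown in pots and covered with soil; WP or EC formulations sprayed on the soil surface as aqueous suspension/emulsion with 0.5% additive at 600 l/ha water. Plants grown in greenhouse; crop damage scored visually after about 3 weeks as % versus untreated controls (100% = dead, 0% = like control).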

Data set [7] deals with Pharbitis purpurea (PHBPU). Put plainly: C. Herbicidal pre-emergence efficacy, PHBPU. The settings on record: scored after about 3 weeks.
Description: as §2, §3

Data set [8] deals with Zea mays (ZEAMX). Put plainly: F. Post-emergence effect on useful plants, ZEAMX. The following applies: useful plant, application rate 80 g/ha. Summed up: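 Crop plants grown in sandy loam in the greenhouse were sprayed at the one-leaf stage, 2-3 weeks after sowing, with WP or EC formulations plus 0.5% additive at 600 l/ha water. Damage was scored visually after about 3 weeks against untreated controls (0% = like control, 100% = dead).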

The test system of data set [9] is Digitaria sanguinalis (DIGSA). Put plainly: E. Herbicidal post-emergence efficacy, DIGSA. How it is done: Seeds of monocotyledonous and dicotyledonous weeds and crop plants were placed in sandy loam in plastic or organic planting pots, covered with soil and cultivated in a greenhouse under controlled growth conditions. 2 to 3 weeks after sowing, the test plants were treated at the one-leaf stage. The compounds of the invention, formulated in the form of wettable powders (WP) or as emulsion concentrates (EC), were then sprayed onto the green parts of the plants as aqueous suspension or emulsion with addition of 0.5% additive at a water application rate of 600 l/ha (converted). After the test plants had been kept in the greenhouse under optimum growth conditions for about 3 weeks, the activity of the preparations was rated visually in comparison to untreated controls.
For example, • 100% efficacy=plants have died, • 0% action=like untreated control plants.
Tables E1a to E12b below show the effects of selected compounds of the general formula (I) according to table 1 on various harmful plants at an application rate corresponding to 320 g/ha or less, which were obtained by the experimental procedure mentioned above.

Data set [10] relates to Kochia scoparia (KCHSC). Put plainly: C. Herbicidal pre-emergence efficacy, KCHSC. An outline of the steps:
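Pre-emergence test: formulated compounds sprayed as aqueous suspension or emulsion with 0.5% additive at 600 l/ha onto soil covering sown seeds, at rates corresponding to 320 g/ha or less. After about 3 weeks in greenhouse, efficacy scored visually as percent versus untreated controls (100% = plants dead).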

Turning to `O=S(=O)(CCCCl)Oc1c(F)cccc1Oc1ncc(Cl)cn1` [Example I-14], the “Post-emergence efficacy against AMARE in %” value in [1] (application rate 80 g/ha) and in data set [1] (application rate 320 g/ha) was 100% throughout. Also, the “Post-emergence efficacy against LOLRI” value in data set [2] is 100%. Further, the “Post-emergence efficacy against STEME” value in [3] (80 g/ha), in data set [3] (320 g/ha) and in [3] (1280 g/ha) was 100% each time. Further, the “Pre-emergence efficacy against AVEFA” value in data set [4] stood at 80%. Further, the “Post-emergence efficacy against ALOMY in %” value in data set [5] (application rate 320 g/ha) came to 90%.
For the molecule `O=S(=O)(CC1CC1)Oc1ccccc1Oc1ncc(Cl)cn1` [Example I-23], in data set [6], the “Pre-emergence efficacy against ZEAMX in %” value came out at 0%. For the same molecule, the “Pre-emergence efficacy against PHBPU” value in data set [7] (320 g/ha) is reported as 80%. Moreover, in [8], the “Post-emergence efficacy against ZEAMX in %” value is 20%. Further, the “Post-emergence efficacy against AMARE in %” value in [1] (application rate 80 g/ha) and in data set [1] (application rate 320 g/ha) was 100% throughout. Besides, the “Post-emergence efficacy against DIGSA in %” value in data set [9] (application rate 320 g/ha) came out at 100%. Besides, the “Post-emergence efficacy against STEME” value is reported as 90% in data set [3] (80 g/ha), 100% in data set [3] (320 g/ha) and 100% in data set [3] (1280 g/ha). Also, the “Pre-emergence efficacy against AVEFA” value in data set [4] turned out to be 90%. Also, the “Post-emergence efficacy against ALOMY in %” value in [5] (application rate 320 g/ha) was 80%.
As to `O=S(=O)(CCC(F)(F)F)Oc1c(F)cccc1Oc1ncc(Br)cn1` [Example I-40], in [7] (320 g/ha), the “Pre-emergence efficacy against PHBPU” value is 100%. For the same molecule, the “Post-emergence efficacy against AMARE in %” value in data set [1] (application rate 80 g/ha) and in data set [1] (application rate 320 g/ha) was 100% throughout. The entries for the “Post-emergence efficacy against DIGSA in %” value in [9] (application rate 80 g/ha) and in [9] (application rate 320 g/ha) were 80% and 100%, respectively. Moreover, the “Pre-emergence efficacy against AVEFA” value in data set [4] came to 100%. Moreover, the “Post-emergence efficacy against ALOMY in %” value in data set [5] (application rate 320 g/ha) is given as 90%. Besides, the “Pre-emergence efficacy against KCHSC in %” value in data set [10] (application rate 80 g/ha) and in [10] (application rate 320 g/ha) was 100% throughout.
Consider `O=S(=O)(CCCC(F)(F)F)Oc1c(F)cccc1Oc1ncc(F)cn1` [Example I-42], for which the “Pre-emergence efficacy against PHBPU” value in [7] (80 g/ha) and in [7] (320 g/ha) was 100% throughout. For the same molecule, the “Post-emergence efficacy against AMARE in %” value in data set [1] (application rate 80 g/ha) and in data set [1] (application rate 320 g/ha) was 100% each time. Besides, the “Post-emergence efficacy against DIGSA in %” value in data set [9] (application rate 80 g/ha) and in [9] (application rate 320 g/ha) was 90% each time. Besides, the “Post-emergence efficacy against STEME” value in data set [3] (80 g/ha), in data set [3] (320 g/ha) and in data set [3] (1280 g/ha) was 100% in each case. Also, in data set [4], the “Pre-emergence efficacy against AVEFA” value is 100%. In addition, the “Post-emergence efficacy against ALOMY in %” value is listed as 90% in [5] (application rate 80 g/ha) and 100% in data set [5] (application rate 320 g/ha). Moreover, the “Pre-emergence efficacy against KCHSC in %” value in data set [10] (application rate 80 g/ha) and in [10] (application rate 320 g/ha) was 100% in each case.
Regarding `O=S(=O)(CCC(F)(F)F)Oc1c(F)cccc1Oc1ncc(F)cn1` [Example I-47], the figures for the “Pre-emergence efficacy against PHBPU” value in data set [7] (80 g/ha) and in data set [7] (320 g/ha) were 90% and 100%, respectively. Moreover, the “Post-emergence efficacy against AMARE in %” value in data set [1] (application rate 80 g/ha) and in data set [1] (application rate 320 g/ha) was 100% each time. The “Post-emergence efficacy against STEME” value in data set [3] (80 g/ha), in data set [3] (320 g/ha) and in [3] (1280 g/ha) was 100% each time. The “Pre-emergence efficacy against AVEFA” value in [4] worked out at 100%. In addition, the “Post-emergence efficacy against ALOMY in %” value in data set [5] (application rate 320 g/ha) was found to be 100%. For the same molecule, the “Pre-emergence efficacy against KCHSC in %” value in [10] (application rate 80 g/ha) and in [10] (application rate 320 g/ha) was 100% throughout.
Consider `O=S(=O)(CCCC(F)F)Oc1c(F)cccc1Oc1ncc(Cl)cn1` [Example I-56], for which the “Pre-emergence efficacy against PHBPU” value in data set [7] (80 g/ha) and in [7] (320 g/ha) was 100% in each case. Also, the “Post-emergence efficacy against ZEAMX in %” value in [8] was determined as 20%. The “Post-emergence efficacy against AMARE in %” value in data set [1] (application rate 80 g/ha) and in [1] (application rate 320 g/ha) was 100% each time. In addition, the “Post-emergence efficacy against DIGSA in %” value in data set [9] (application rate 320 g/ha) is 100%. For the same molecule, the “Post-emergence efficacy against STEME” value in data set [3] (80 g/ha), in data set [3] (320 g/ha) and in data set [3] (1280 g/ha) was 90% throughout. The “Pre-emergence efficacy against AVEFA” value in data set [4] turned out to be 80%. The “Post-emergence efficacy against ALOMY in %” value in [5] (application rate 320 g/ha) is 80%. The “Pre-emergence efficacy against KCHSC in %” value in [10] (application rate 80 g/ha) and in data set [10] (application rate 320 g/ha) was 100% each time.

The values are drawn from patent US20240174618A1, “SUBSTITUTED (2-HETEROARYLOXYPHENYL)SULFONATES, SALTS THEREOF AND THEIR USE AS HERBICIDAL AGENTS” (Bayer Aktiengesellschaft, priority 2021, published 2024).
